The values below come from patent publication US20260115253A1, “VISCOUS COMPOSITION FOR TREATING ISCHEMIA” (National Cheng Kung University, priority 2017, published 2026).

This experiment concerns diabetic mice with lower limb ischemia. The experiment can be described thus: Diabetic lower limb ischemia mouse model, blood flow by laser Doppler flowmetry. The settings on record: 3.125 ng/g of VEGF in composition DIV. It counts as in vivo.

Procedure: C57BL/6 male mice were sourced from the National Cheng Kung University (NCKU) Laboratory Animal Center or BioLASCO Taiwan Co., Ltd. They were housed in the animal facility of the NCKU Institute of Biotechnology for at least one week in order for them to adapt to the environment before experiments were performed.
Since low blood sugar levels in mice would interfere with the results, mice with blood sugar levels within the range of 400 mg/dl to 550 mg/dl were used for the experiments, and minute amount of insulin might be applied to mice to avoid life-threatening high blood sugar levels. In order to avoid the possibility of self-regenerative neovascularization, the femoral artery and its peripheral blood vessels in the lower limbs of the mice were severed. The model minimized the possibility of blood vessel regeneration, which allowed a more accurate assessment of the angiogenic ability of testing drugs. […]
At day 0, 1, 2, 3, 4, 5, 6, 7, 14, 21 and 28 post-surgery, the apparent appearance and blood flow of the lower limb in the mice were evaluated using the score system shown in Table 1 and laser Doppler flowmetry, respectively. ROI was calculated as the ratio of the blood flow signal of the left lower limb to that of the untreated right lower limb post-surgery, and the ratio in percentage was normalized based on the blood flow signal taken before the operation.

With VEGF, the “Blood flow compared with the control group” value was “significantly increased the blood flow at day 14 and then on post surgery”.
